In patent US12692229B2, “Masp-2 inhibitors and methods of use” (Omeros Corporation, priority 2019, dated 2026):
Where a name gives a salt, the structure may show the parent alone.

molecular target: T1, MASP-2 (CCP1-CCP2-SP) (Homo sapiens, UniProt O00187); assay: Enzymatic Assay for MASP-2 (fluorogenic substrate); format: biochemical; settings: room temperature, 20 mM HEPES pH 7.4, 140 mM NaCl, 0.1% Tween 20, 20 min
T1 construct: 15 μL of Enzyme MASP-2 (CCP1-CCP2-SP) in Assay Buffer
Experimental: Enzymatic Assay for MASP-2
The MASP-2 assay utilizes a fluorogenic substrate, based on the cleavage site for its natural substrate C2. The assay is run at room temperature in an assay buffer containing 20 mM HEPES, pH 7.4, 140 mM NaCl and 0.1% Tween 20. Assay parameters are adjusted such that the assay is linear with respect to time, enzyme, and substrate concentrations. Under these optimized assays conditions, IC50 values are equivalent to Ki values, except in a few cases of “tight binding” inhibitors. Cases of “tight binding” or possible “slow binding” inhibitors are handled by the methods described in Copeland R. A. (2013) Evaluation of Enzyme Inhibitors in Drug Discovery. 2nd Ed., John Wiley and Sons, Inc., Chapters 5-7.
The MASP-2 assay protocol is carried out as follows. Test compounds are serially diluted in DMSO and then 100 nL of each dilution is transferred to the assay plate(s). 10 μL of Assay Buffer is added, followed by 15 μL of Enzyme MASP-2 (CCP1-CCP2-SP) in Assay Buffer. 15 μL of Substrate in Assay Buffer is then added and mixed to start the reactions. After 20 min at room temperature, 15 μL of a stop solution (0.1 M acetic acid) is added, mixed and the plates are read on a SpectraMax i3× Microplate Reader and exported as Excel files. Each assay plate included a “no inhibitor” (DMSO Only) control, a “no enzyme” control and a reference inhibitor control. % Activity values=100*(average test comp. fluorescence-average “no enzyme” fluorescence)/(average “DMSO only” fluorescence-average “no enzyme” fluorescence). IC50 and Ki values are very reproducible, falling well within ±2-fold.

T1 sequence (O00187 445-686 limits assumed): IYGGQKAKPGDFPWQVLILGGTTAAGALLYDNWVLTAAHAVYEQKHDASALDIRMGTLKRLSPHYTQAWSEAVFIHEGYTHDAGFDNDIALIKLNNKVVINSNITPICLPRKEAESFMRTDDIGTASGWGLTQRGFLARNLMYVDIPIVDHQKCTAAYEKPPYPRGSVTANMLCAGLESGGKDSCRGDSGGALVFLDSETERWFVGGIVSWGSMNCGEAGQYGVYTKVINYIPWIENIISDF
T1 sequence (O00187 287-444 partner limits assumed): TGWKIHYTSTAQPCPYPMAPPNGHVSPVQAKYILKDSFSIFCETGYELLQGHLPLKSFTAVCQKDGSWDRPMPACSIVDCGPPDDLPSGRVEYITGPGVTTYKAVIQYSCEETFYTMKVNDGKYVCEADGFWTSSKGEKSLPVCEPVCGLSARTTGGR

Ki, < 500 nM:
COC(=O)[C@@H]1C[C@@H](C(=O)NCc2ccc(C(=N)N)cc2)N(C(=O)[C@H](N)CCc2ccccc2)C1 [Compound I-1, Methyl (3R,5S)-1-((R)-2-amino-4-phenylbutanoyl)-5-((4-carbamimidoylbenzyl)carbamoyl)pyrrolidine-3-carboxylate ditrifluoroacetate]
COC[C@H]1C[C@@H](C(=O)NCc2ccc(C(=N)N)cc2)N(C(=O)[C@H](N)CCc2ccccc2)C1 [Compound I-2, (2S,4S)-1-((R)-2-amino-4-phenylbutanoyl)-N-(4-carbamimidoylbenzyl)-4-(methoxymethyl)pyrrolidine-2-carboxamide dihydrochloride]
N=C(N)c1ccc(CNC(=O)[C@@H]2C[C@H](c3ccccc3)CN2C(=O)[C@H](N)CCc2ccccc2)cc1 [Compound I-3, (2S,4R)-1-((R)-2-amino-4-phenylbutanoyl)-N-(4-carbamimidoylbenzyl)-4-phenylpyrrolidine-2-carboxamide dihydrochloride]
N#C[C@H]1C[C@@H](C(=O)NCc2ccc(C(=N)N)cc2)N(C(=O)[C@H](N)CCc2ccccc2)C1 [Compound I-6, (2S,4S)-1-((R)-2-amino-4-phenylbutanoyl)-N-(4-carbamimidoylbenzyl)-4-cyanopyrrolidine-2-carboxamide ditrifluoroacetate]
N=C(N)c1ccc(CNC(=O)[C@@H]2C[C@@H](c3ccccc3)CN2C(=O)[C@H](N)CCc2ccccc2)cc1 [Compound I-11, (2S,4S)-1-((R)-2-amino-4-phenylbutanoyl)-N-(4-carbamimidoylbenzyl)-4-phenylpyrrolidine-2-carboxamide dihydrochloride]
N=C(N)c1ccc(CNC(=O)[C@@H]2CC(n3cccn3)CN2C(=O)[C@H](N)CCc2ccccc2)cc1 (stereo partly drawn) [Compound I-22, Dihydrochloride]
